# Source: US20180201609A1 (AURIGENE DISCOVERY TECHNOLOGIES LIMITED, priority 2015, published 2018)
# Counter-ions that a name gives are not always drawn.
# Target: T1, IRAK-4 enzyme (Homo sapiens, UniProt Q9NWZ3)
# T1 construct: purchased Millipore, USA
# T1 sequence (Q9NWZ3 1-460): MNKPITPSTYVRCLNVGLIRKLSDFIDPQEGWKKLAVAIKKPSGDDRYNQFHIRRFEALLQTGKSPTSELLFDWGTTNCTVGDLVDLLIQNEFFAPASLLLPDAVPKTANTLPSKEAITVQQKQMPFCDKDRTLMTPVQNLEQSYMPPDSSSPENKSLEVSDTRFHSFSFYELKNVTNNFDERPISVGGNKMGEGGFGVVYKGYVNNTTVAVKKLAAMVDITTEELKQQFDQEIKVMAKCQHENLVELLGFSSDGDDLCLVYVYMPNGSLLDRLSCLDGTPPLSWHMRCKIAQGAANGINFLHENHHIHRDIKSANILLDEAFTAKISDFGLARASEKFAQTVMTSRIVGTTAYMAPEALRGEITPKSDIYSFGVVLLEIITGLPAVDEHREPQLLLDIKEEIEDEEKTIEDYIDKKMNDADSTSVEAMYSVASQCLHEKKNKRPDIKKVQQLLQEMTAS
# Experiment: IRAK-4 Biochemical Assay (TR-FRET)
# Conditions: recombinant IRAK-4 kinase, 20 μM ATP; for inhibition at 0.1 µM: 0.1 μM compound; for inhibition at 1 µM: 1 μM compound
# Protocol: Compounds were tested for their potential to inhibit IRAK-4 enzyme in a TR-FRET assay using recombinant IRAK-4 kinase from Millipore, USA. The assay buffer was 50 mM Tris-HCl pH 7.5, 20 mM MgCl2, 1 mM EGTA, 2 mM DTT, 3 mM MnCl2 and 0.01% Tween 20.5 ng of IRAK-4 kinase was used for the assay. After pre-incubation of enzyme with test compound for 30 minutes at room temperature, a substrate mixture containing 100 nM Biotin Histone H3 (Millipore, USA) and 20 μM ATP (Sigma, USA) was added and the reaction was incubated for 30 min. Post incubation, the reaction was stopped by the addition of stop mix containing 40 mM EDTA, 1 nM of Europium-Anti-Phospho-Histone H3 (Ser10) antibody (Perkin Elmer, USA) and 20 nM SureLight Allophycocyanin-Streptavidin (Perkin Elmer, USA). The fluorescence emission at 615 nm and 665 nm were measured at an excitation of 340 nm and the percent inhibition was estimated from the ratio of the fluorescence intensities [(F665/F615)×10000].
# The compounds of the present invention were screened in the above mentioned assay and the percent inhibition data is summarized in the Table 1.
Structure (SMILES),inhibition at 0.1 µM,inhibition at 1 µM
"Cc1cc(-c2nc(C(=O)Nc3cc4c(C)n(C)nc4nc3N3CCCCC3)co2)ccn1 [Example 26, N-(2,3-dimethyl-6-(piperidin-1-yl)-2H-pyrazolo[3,4-b]pyridin-5-yl)-2-(2-methylpyridin-4-yl)oxazole-4-carboxamide]",94%,97%
"Cc1c2cc(NC(=O)c3coc(-c4ccnc(N)c4)n3)c(N3CCCCC3)nc2nn1C [Example 27, 2-(2-aminopyridin-4-yl)-N-(2,3-dimethyl-6-(piperidin-1-yl)-2H-pyrazolo[3,4-b]pyridin-5-yl)oxazole-4-carboxamide]",97%,98%
"Cc1cc(-c2nc(C(=O)Nc3cc4c(C)nn(C)c4nc3N3CCC(CO)CC3)co2)ccn1 [Example 28, N-(6-(4-(hydroxymethyl)piperidin-1-yl)-1,3-dimethyl-1H-pyrazolo[3,4-b]pyridin-5-yl)-2-(2-methylpyridin-4-yl)oxazole-4-carboxamide]",89%,97%
"Cc1nn(C)c2nc(N3CCC(CO)CC3)c(NC(=O)c3coc(-c4ccnc(N)c4)n3)cc12 [Example 29, 2-(2-aminopyridin-4-yl)-N-(6-(4-(hydroxymethyl)piperidin-1-yl)-1,3-dimethyl-1H-pyrazolo[3,4-b]pyridin-5-yl)oxazole-4-carboxamide]",97%,99%
"COCCn1nc(C)c2cc(NC(=O)c3coc(-c4ccnc(N)c4)n3)c(N3CCC(CO)CC3)nc21 [Example 30, 2-(2-aminopyridin-4-yl)-N-(6-(4-(hydroxymethyl)piperidin-1-yl)-1-(2-methoxyethyl)-3-methyl-1H-pyrazolo[3,4-b]pyridin-5-yl)oxazole-4-carboxamide]",86%,99%
"CN1CCN(CCn2ncc3cc(NC(=O)c4coc(-c5ccnc(N)c5)n4)c(N4CCC(O)CC4)cc32)CC1 [Example 31, 2-(2-aminopyridin-4-yl)-N-(6-(4-hydroxypiperidin-1-yl)-1-(2-(4-methylpiperazin-1-yl)ethyl)-1H-indazol-5-yl)oxazole-4-carboxamide hydrochloride]",99%,99%
"O=C(Nc1cc2cnn(C3CCNCC3)c2cc1C1CC1)c1cccc(N2CCC(O)C2)n1 (stereo not drawn) [Example 32, N-(6-cyclopropyl-1-(piperidin-4-yl)-1H-indazol-5-yl)-6-(3-hydroxypyrrolidin-1-yl)picolinamide hydrochloride]",19%,80%

# The remaining lines, values ahead:
inhibition at 0.1 µM,inhibition at 1 µM,Structure (SMILES)
43%,81%,"Cn1ncc2cc(NC(=O)c3cccc(N4CCC(O)C4)n3)c(N3CCCCC3)cc21 (stereo not drawn) [Example 33, 6-(3-hydroxypyrrolidin-1-yl)-N-(1-methy-6-(piperidin-1-yl)-1H-indazol-5-yl)picolinamide]"
25%,46%,C=CCOCC1CCN(c2cc3c(cc2NC(=O)c2coc(-c4cccc(N)n4)n2)c(C)nn3C)CC1 [Example 34]
95%,96%,"CCOCC1CCN(c2cc3c(cc2NC(=O)c2coc(-c4ccnc(N)c4)n2)c(C)nn3C)CC1 [Example 35, 2-(2-aminopyridin-4-yl)-N-(6-(4-(ethoxymethyl)piperidin-1-yl)-1,3-dimethyl-1H-indazol-5-yl)oxazole-4-carboxamide]"
81%,85%,"Cc1nn(C)c2cc(N3CCC(COCC4CC4)CC3)c(NC(=O)c3coc(-c4ccnc(N)c4)n3)cc12 [Example 36, 2-(2-aminopyridin-4-yl)-N-(6-(4-((cyclopropylmethoxy)methyl)piperidin-1-yl)-1,3-dimethyl-1H-indazol-5-yl)oxazole-4-carboxamide]"
14%,75%,"Cc1nn(C)c2cc(N3CCC(CO)CC3)c(NC(=O)c3cccc(-c4ccc(N)nc4)n3)cc12 [Example 37, 6′-amino-N-(6-(4-(hydroxymethyl)piperidin-1-yl)-1,3-dimethyl-1H-indazol-5-yl)-[2,3′-bipyridine]-6-carboxamide hydrochloride]"
